The subject of series [1] is Neuro 2A cells. Put plainly: Selective toxicity (ratio of cytotoxicity/minimum effective dose). In kind it is cell-based, mouse. The text has this: 2. No specific test method for selective toxicity of the compounds is known, therefore the selective toxicity is defined as the ratio of cytotoxicity/minimum effective dose.
Series [2] relates to Neuro 2A cells. Put plainly: Activity of neuritogenesis (bipolar outgrowth of neurites) in Neuro 2A cells, minimum effective dose. The class given is cell-based, mouse. The note with it: Mus musculus, N2a, read-out: Minimum effective dose (A). On the procedure: (§1) Morphological changes of Neuro 2A cells are observed according to the method of Baglioni et al. [J. Biol. Chem., 266: 18620 (1991)].
Neuro 2A cells were plated at a density of 1×10^4 cells/cm^2 in a 24-hole plate, and cultured in MEM-H with 10% FBS.

Series [3] is described as follows: Cytotoxic action on Neuro 2A cells. As to conditions: mouse, no attached cells observed in more than 2/3 of the whole cells, read-out: Cytotoxicity (B). In kind it is cell-based. On the procedure:
as §1
Neuro 2A cells were plated at a density of 1×10^4 cells/cm^2 in a 24-hole plate, and cultured in MEM-H with 10% FBS. On the next day, lactacystin or lactacystin derivatives were added at the concentration of 0.05-100 μM, and morphological changes of the cells with time were observed by phase contrast microscopy.

Where [4] appears, read: Neuro 2A cells, concentration in which approximately 20% of whole cells showed bipolar outgrowth of neurites.

Read-outs that look alike come from different tables or passages of the source.

Take `COC(=O)[C@]1([C@@H](O)C(C)C)NC(=O)[C@H](C)[C@@H]1O` [Example 1, .tau.-lactam methyl ester]: the “Selective toxicity (B/A)” value with Neuro 2A cells [1] is 8. Moreover, the minimal effective concentration in the series on Neuro 2A cells [2] (setting [4]) was 1.56 µM. Moreover, in series [3], the MCC worked out at 12.5 µM.
For `CC(C)[C@H](O)[C@@]1(C(=O)SCCC(=O)O)NC(=O)[C@H](C)[C@@H]1O` [Example 2, des-N-acetylaminolactacystin], in that order: 8, 0.2 µM and 1.56 µM.
For `CCOC(=O)CCSC(=O)[C@]1([C@@H](O)C(C)C)NC(=O)[C@H](C)[C@@H]1O` [Example 3, des-N-acetylaminolactacystin ethyl ester], in that order: 16, 0.2 µM and 3.12 µM.
For `CC(C)[C@H](O)[C@@]1(C(=O)SCCN)NC(=O)[C@H](C)[C@@H]1O` [Example 4, des-N-acetyldescarboxylactacystin], in that order: 8, 3.12 µM and 25 µM.
As for `COC(=O)[C@H](CSC(=O)[C@]1([C@@H](O)C(C)C)NC(=O)[C@H](C)[C@@H]1O)NC(C)=O` [Example 5, lactacystin methyl ester], in the series with Neuro 2A cells [1], the “Selective toxicity (B/A)” value turned out to be 8. Besides, in the series on Neuro 2A cells [2] (setting [4]), the minimal effective concentration was 0.78 µM. The MCC in series [3] stood at 6.25 µM.
For `C=CCOC(=O)[C@H](CSC(=O)[C@]1([C@@H](O)C(C)C)NC(=O)[C@H](C)[C@@H]1O)NC(C)=O` [Example 6, lactacystin allyl ester] the same measures were 31, 0.2 µM and 6.25 µM.
For `CCSC(=O)[C@]1([C@@H](O)C(C)C)NC(=O)[C@H](C)[C@@H]1O` [Example 7, 3-hydroxy-2-(1-hydroxy-2-methylpropyl)-4-methyl-5-oxo-2-pyrrolidine-ethanethiocarboxylate], in that order: 8, 0.2 µM and 1.56 µM.
For `CCCSC(=O)[C@]1([C@@H](O)C(C)C)NC(=O)[C@H](C)[C@@H]1O` [Example 8] the same measures were 16, 0.2 µM and 3.12 µM.
For `CC(C)SC(=O)[C@]1([C@@H](O)C(C)C)NC(=O)[C@H](C)[C@@H]1O` [Example 9, 3-hydroxy-2-(1-hydroxy-2-methylpropyl)-4-methyl-5-oxo-2-pyrrolidine-iso-propanethiocarboxylate], the “Selective toxicity (B/A)” value with Neuro 2A cells [1] worked out at 31. Moreover, the minimal effective concentration in the series on Neuro 2A cells [2] (setting [4]) amounted to 0.4 µM. Moreover, the MCC in series [3] came to 12.5 µM.
For `CCCCSC(=O)[C@]1([C@@H](O)C(C)C)NC(=O)[C@H](C)[C@@H]1O` [Example 10, 3-hydroxy-2-(1-hydroxy-2-methylpropyl)-4-methyl-5-oxo-2-pyrrolidine-butanethiocarboxylate], in that order: 31, 0.4 µM and 12.5 µM.
For `CCC(C)SC(=O)[C@]1([C@@H](O)C(C)C)NC(=O)[C@H](C)[C@@H]1O` (stereo partly drawn) [Example 11, 3-hydroxy-2-(1-hydroxy-2-methylpropyl)-4-methyl-5-oxo-2-pyrrolidine-1-methyl-1-propanethiocarboxylate], in that order: 31, 0.4 µM and 12.5 µM.
For `CCCCCSC(=O)[C@]1([C@@H](O)C(C)C)NC(=O)[C@H](C)[C@@H]1O` [Example 12, 3-hydroxy-2-(1-hydroxy-2-methylpropyl)-4-methyl-5-oxo-2-pyrrolidine-1-pentanethiocarboxylate] the same measures were 16, 0.8 µM and 12.5 µM.
For the compound `CC(C)[C@H](O)[C@@]1(C(=O)Sc2ccccc2)NC(=O)[C@H](C)[C@@H]1O` [Example 13, 3-hydroxy-2-(1-hydroxy-2-methylpropyl)-4-methyl-5-oxo-2-pyrrolidine-phenythiocarboxylate], the “Selective toxicity (B/A)” value with Neuro 2A cells [1] was 16. For the same compound, the minimal effective concentration with Neuro 2A cells [2] came to 0.8 µM. The MCC in series [3] amounted to 12.5 µM.
Consider `CC(C)[C@H](O)[C@@]1(C(=O)SCCO)NC(=O)[C@H](C)[C@@H]1O` [Example 14, 3-hydroxy-2-(1-hydroxy-2-methylpropyl)-4-methyl-5-oxo-2-pyrrolidine-2-hydroxyethanethiocarboxylate], for which the “Selective toxicity (B/A)” value in the series with Neuro 2A cells [1] is 8. For the same compound, the minimal effective concentration in the series with Neuro 2A cells [2] (setting [4]) came to 3.12 µM. Moreover, the MCC in series [3] turned out to be 25 µM.
For `CC(C)[C@H](O)[C@@]1(C(=O)SCCCO)NC(=O)[C@H](C)[C@@H]1O` [Example 15, 3-hydroxy-2-(1-hydroxy-2-methylpropyl)-4-methyl-5-oxo-2-pyrrolidine-3-hydroxypropanethiocarboxylate], in that order: 31, 0.4 µM and 12.5 µM.
For `CC(C)[C@H](O)[C@@]1(C(=O)Sc2ccc(O)cc2)NC(=O)[C@H](C)[C@@H]1O` [Example 16, 3-hydroxy-2-(1-hydroxy-2-methylpropyl)-4-methyl-5-oxo-2-pyrrolidine-4-hydroxyphenylthiocarboxylate], in that order: 31, 0.4 µM and 12.5 µM.
For `CNCCSC(=O)[C@]1([C@@H](O)C(C)C)NC(=O)[C@H](C)[C@@H]1O` [Example 17, 3-hydroxy-2-(1-hydroxy-2-methylpropyl)-4-methyl-5-oxo-2-pyrrolidine-2-N-methylethanethiocarboxylate] the same measures were 8, 0.8 µM and 6.25 µM.
`CC(C)[C@H](O)[C@@]1(C(=O)SCCN(C)C)NC(=O)[C@H](C)[C@@H]1O` [Example 18, 3-hydroxy-2-(1-hydroxy-2-methylpropyl)-4-methyl-5-oxo-2-pyrrolidine-2-N-dimethyl-ethanethiocarboxylate]: the “Selective toxicity (B/A)” value in the series on Neuro 2A cells [1] was found to be 31. Also, the minimal effective concentration in the series on Neuro 2A cells [2] (setting [4]) was found to be 0.2 µM. Further, the MCC in series [3] was 6.25 µM.
In the case of `CC(C)[C@H](O)[C@@]1(C(=O)SCC(=O)O)NC(=O)[C@H](C)[C@@H]1O` [Example 19, 3-hydroxy-2-(1-hydroxy-2-methylpropyl)-4-methyl-5-oxo-2-pyrrolidine-1-carboxymethylthiocarboxylate], the “Selective toxicity (B/A)” value with Neuro 2A cells [1] turned out to be 31. For the same compound, in the series on Neuro 2A cells [2] (setting [4]), the minimal effective concentration came out at 0.4 µM. The MCC in series [3] amounted to 12.5 µM.
For `COC(=O)CSC(=O)[C@]1([C@@H](O)C(C)C)NC(=O)[C@H](C)[C@@H]1O` [Example 20, 3-hydroxy-2-(1-hydroxy-2-methylpropyl)-4-methyl-5-oxo-2-pyrrolidine-methoxycarbonylthiocarboxylate] the same measures were 16, 0.8 µM and 12.5 µM.
In the case of `COC(=O)CCSC(=O)[C@]1([C@@H](O)C(C)C)NC(=O)[C@H](C)[C@@H]1O` [Example 21, 3-hydroxy-2-(1-hydroxy-2-methylpropyl)-4-methyl-5-oxo-2-pyrrolidine-methoxycarbonylethylthiocarboxylate], the “Selective toxicity (B/A)” value in the series on Neuro 2A cells [1] came out at 8. Moreover, the minimal effective concentration with Neuro 2A cells [2] (setting [4]) came to 0.2 µM. For the same compound, in series [3], the MCC was determined as 1.56 µM.

Source of the values: patent publication US5869675A, “Lactacystin derivatives” (The Kitasato Institute, priority 1994, dated 1999).
